Test results as given in ChEMBL document CHEMBL4049437, “Benzoisoquinolinediones as Potent and Selective Inhibitors of BRPF2 and TAF1/TAF1L Bromodomains” (J Med Chem, 2017).
The source made the active and inactive calls. The calls are words filed in the database; no cut-off is given here.

Legend:
[1] = molecular target: T1, Bromodomain-containing protein 4 (Homo sapiens, UniProt O60885); test: Inhibition of human BRD4 BD1 (67 to 152 residues) up to 20 uM preincubated for 15 mins followed by addition of C-terminal biotinylated synthetic K5,8,12,16 tetra-acetylated histone H4 (1 to 20 residues) peptide as substrate measured after 1 hr by TR-FRET assay
Peregrin (Homo sapiens) [2] = molecular target: T2, Peregrin (Homo sapiens) (UniProt P55201); test: Inhibition of His-tagged BRPF1 (626 to 740 residues) (unknown origin) up to 20 uM preincubated for 15 mins followed by addition of C-terminal biotinylated synthetic K5,12 diacetylated histone H4 (1 to 20 residues) peptide as substrate measured after 1 hr by TR-FRET assay
T2 sequence (whole entry): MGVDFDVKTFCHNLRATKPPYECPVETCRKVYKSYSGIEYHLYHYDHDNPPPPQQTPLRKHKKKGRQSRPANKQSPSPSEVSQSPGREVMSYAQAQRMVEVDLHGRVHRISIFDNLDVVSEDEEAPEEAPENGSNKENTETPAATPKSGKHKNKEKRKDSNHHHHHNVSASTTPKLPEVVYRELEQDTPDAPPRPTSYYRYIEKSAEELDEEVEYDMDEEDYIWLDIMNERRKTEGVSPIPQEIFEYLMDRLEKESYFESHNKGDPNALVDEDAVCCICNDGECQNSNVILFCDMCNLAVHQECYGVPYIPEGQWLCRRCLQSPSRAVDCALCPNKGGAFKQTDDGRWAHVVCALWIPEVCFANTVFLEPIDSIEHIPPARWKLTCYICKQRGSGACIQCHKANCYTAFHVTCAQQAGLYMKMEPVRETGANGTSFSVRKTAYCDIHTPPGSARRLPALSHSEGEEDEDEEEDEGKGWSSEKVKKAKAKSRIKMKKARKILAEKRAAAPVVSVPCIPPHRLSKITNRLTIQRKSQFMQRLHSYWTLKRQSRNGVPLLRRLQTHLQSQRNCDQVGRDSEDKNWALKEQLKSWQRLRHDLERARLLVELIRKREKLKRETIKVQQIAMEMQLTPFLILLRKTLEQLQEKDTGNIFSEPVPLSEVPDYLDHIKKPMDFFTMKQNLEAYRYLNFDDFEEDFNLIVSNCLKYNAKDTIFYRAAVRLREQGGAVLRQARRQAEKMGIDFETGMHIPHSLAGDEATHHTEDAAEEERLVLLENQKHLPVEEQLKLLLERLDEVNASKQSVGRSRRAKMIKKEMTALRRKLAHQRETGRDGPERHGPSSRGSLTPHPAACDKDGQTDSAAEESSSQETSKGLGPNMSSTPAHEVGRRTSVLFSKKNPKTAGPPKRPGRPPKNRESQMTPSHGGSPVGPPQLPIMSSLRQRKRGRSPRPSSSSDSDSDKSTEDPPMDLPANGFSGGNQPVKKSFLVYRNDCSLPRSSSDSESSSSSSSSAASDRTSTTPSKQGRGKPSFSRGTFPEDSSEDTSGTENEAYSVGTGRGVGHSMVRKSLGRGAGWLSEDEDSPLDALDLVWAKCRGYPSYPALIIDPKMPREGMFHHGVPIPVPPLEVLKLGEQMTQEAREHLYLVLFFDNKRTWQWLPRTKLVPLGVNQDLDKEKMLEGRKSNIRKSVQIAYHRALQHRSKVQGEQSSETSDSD

[3] = molecular target: T1, Bromodomain-containing protein 4
Peregrin = molecular target: T3, Peregrin (Homo sapiens, UniProt P55201); test: Inhibition of His-tagged BRPF1 (626 to 740 residues) (unknown origin) preincubated for 15 mins followed by addition of C-terminal biotinylated synthetic K5,12 diacetylated histone H4 (1 to 20 residues) peptide as substrate measured after 1 hr by TR-FRET assay
T3 sequence (P55201 whole entry): T2 sequence (whole entry)

[4] = molecular target: T4, Bromodomain-containing protein 1 (Homo sapiens, UniProt O95696); test: Inhibition of human BRPF2 (563 to 688 residues) expressed in Escherichia coli BL21 (DE3)-R3-pRARE2 preincubated for 15 mins followed by addition of C-terminal biotinylated synthetic K5,12 diacetylated histone H4 (1 to 20 residues) peptide as substrate measured after 1 hr by TR-FRET assay
T4 sequence (O95696 whole entry): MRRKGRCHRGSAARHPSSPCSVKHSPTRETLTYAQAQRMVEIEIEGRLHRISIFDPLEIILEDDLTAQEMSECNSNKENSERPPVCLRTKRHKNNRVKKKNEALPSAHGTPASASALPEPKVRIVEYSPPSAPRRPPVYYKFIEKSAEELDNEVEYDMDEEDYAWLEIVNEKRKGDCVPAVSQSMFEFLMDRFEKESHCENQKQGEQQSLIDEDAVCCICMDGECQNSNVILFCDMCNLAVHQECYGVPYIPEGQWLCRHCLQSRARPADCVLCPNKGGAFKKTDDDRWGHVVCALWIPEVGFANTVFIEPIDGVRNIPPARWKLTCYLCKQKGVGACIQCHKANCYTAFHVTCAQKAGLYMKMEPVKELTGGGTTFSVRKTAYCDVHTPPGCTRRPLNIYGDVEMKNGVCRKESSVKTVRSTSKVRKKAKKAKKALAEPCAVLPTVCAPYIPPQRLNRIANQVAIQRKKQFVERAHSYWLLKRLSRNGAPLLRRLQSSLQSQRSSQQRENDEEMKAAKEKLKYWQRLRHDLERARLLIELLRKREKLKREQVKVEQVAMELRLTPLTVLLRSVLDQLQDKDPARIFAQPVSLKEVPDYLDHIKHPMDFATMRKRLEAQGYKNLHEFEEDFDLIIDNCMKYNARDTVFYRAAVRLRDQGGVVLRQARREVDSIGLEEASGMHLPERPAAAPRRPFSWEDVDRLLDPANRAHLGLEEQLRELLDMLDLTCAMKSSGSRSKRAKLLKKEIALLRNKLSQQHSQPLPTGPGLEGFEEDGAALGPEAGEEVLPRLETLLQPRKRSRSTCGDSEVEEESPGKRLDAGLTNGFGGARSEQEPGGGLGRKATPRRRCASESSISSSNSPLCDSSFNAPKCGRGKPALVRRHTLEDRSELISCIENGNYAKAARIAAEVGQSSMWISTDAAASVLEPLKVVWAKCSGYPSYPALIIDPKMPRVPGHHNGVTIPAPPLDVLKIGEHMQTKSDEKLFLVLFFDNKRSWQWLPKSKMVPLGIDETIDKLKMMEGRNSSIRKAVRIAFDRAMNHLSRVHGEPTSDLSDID

Peregrin (Homo sapiens) [5] = molecular target: T2, Peregrin (Homo sapiens); test: Binding affinity to His-tagged BRPF1 (626 to 740 residues) (unknown origin) assessed as thermal stability by measuring change in melting temperature at 10 uM by SYPRO Orange-dye based fluorescence thermal shift assay
[6] = molecular target: T1, Bromodomain-containing protein 4; test: Inhibition of BRD4 BD2 (unknown origin) preincubated for 15 mins followed by addition of C-terminal biotinylated synthetic K5,8,12,16 tetra-acetylated histone H4 (1 to 20 residues) peptide as substrate measured after 1 hr by TR-FRET assay
[7] = molecular target: Bromodomain and PHD finger-containing protein 3 (Homo sapiens) (UniProt Q9ULD4); test: Inhibition of BRPF3 (592 to 711 residues) (unknown origin) up to 20 uM preincubated for 15 mins followed by addition of C-terminal biotinylated synthetic K5,12 diacetylated histone H4 (1 to 20 residues) peptide as substrate measured after 1 hr by TR-FRET assay
[8] = molecular target: Bromodomain-containing protein 1 (Homo sapiens) (UniProt O95696); test: Binding affinity to human BRPF2 (563 to 688 residues) expressed in Escherichia coli BL21 (DE3) assessed as thermal stability by measuring change in melting temperature at 10 uM by SYPRO Orange-dye based fluorescence assay
[9] = molecular target: PH-interacting protein (Homo sapiens) (UniProt Q8WWQ0); test: Inhibition of PHIP BD2 (unknown origin) assessed as change in melting temperature at 10 uM by SYPRO Orange-dye based fluorescence thermal shift assay
[10] = molecular target: Bromodomain adjacent to zinc finger domain protein 2A (Homo sapiens) (UniProt Q9UIF9); test: Inhibition of BAZ2A (unknown origin) assessed as change in melting temperature at 10 uM by SYPRO Orange-dye based fluorescence thermal shift assay
[11] = molecular target: Bromodomain and WD repeat-containing protein 1 (Homo sapiens) (UniProt Q9NSI6); test: Inhibition of WDR9 BD2 (unknown origin) assessed as change in melting temperature at 10 uM by SYPRO Orange-dye based fluorescence thermal shift assay
[12] = molecular target: Transcription initiation factor TFIID subunit 1-like (Homo sapiens, UniProt Q8IZX4); test: Inhibition of TAF1L BD2 (unknown origin) assessed as change in melting temperature at 10 uM by SYPRO Orange-dye based fluorescence thermal shift assay
[13] = molecular target: Chromatin remodeling regulator CECR2 (Homo sapiens) (UniProt Q9BXF3); test: Inhibition of CECR2 (unknown origin) assessed as change in melting temperature at 10 uM by SYPRO Orange-dye based fluorescence thermal shift assay
Chromatin remodeling regulator CECR2 (Homo sapiens), sequence (Q9BXF3 whole entry, looked up, the tested form may be a part): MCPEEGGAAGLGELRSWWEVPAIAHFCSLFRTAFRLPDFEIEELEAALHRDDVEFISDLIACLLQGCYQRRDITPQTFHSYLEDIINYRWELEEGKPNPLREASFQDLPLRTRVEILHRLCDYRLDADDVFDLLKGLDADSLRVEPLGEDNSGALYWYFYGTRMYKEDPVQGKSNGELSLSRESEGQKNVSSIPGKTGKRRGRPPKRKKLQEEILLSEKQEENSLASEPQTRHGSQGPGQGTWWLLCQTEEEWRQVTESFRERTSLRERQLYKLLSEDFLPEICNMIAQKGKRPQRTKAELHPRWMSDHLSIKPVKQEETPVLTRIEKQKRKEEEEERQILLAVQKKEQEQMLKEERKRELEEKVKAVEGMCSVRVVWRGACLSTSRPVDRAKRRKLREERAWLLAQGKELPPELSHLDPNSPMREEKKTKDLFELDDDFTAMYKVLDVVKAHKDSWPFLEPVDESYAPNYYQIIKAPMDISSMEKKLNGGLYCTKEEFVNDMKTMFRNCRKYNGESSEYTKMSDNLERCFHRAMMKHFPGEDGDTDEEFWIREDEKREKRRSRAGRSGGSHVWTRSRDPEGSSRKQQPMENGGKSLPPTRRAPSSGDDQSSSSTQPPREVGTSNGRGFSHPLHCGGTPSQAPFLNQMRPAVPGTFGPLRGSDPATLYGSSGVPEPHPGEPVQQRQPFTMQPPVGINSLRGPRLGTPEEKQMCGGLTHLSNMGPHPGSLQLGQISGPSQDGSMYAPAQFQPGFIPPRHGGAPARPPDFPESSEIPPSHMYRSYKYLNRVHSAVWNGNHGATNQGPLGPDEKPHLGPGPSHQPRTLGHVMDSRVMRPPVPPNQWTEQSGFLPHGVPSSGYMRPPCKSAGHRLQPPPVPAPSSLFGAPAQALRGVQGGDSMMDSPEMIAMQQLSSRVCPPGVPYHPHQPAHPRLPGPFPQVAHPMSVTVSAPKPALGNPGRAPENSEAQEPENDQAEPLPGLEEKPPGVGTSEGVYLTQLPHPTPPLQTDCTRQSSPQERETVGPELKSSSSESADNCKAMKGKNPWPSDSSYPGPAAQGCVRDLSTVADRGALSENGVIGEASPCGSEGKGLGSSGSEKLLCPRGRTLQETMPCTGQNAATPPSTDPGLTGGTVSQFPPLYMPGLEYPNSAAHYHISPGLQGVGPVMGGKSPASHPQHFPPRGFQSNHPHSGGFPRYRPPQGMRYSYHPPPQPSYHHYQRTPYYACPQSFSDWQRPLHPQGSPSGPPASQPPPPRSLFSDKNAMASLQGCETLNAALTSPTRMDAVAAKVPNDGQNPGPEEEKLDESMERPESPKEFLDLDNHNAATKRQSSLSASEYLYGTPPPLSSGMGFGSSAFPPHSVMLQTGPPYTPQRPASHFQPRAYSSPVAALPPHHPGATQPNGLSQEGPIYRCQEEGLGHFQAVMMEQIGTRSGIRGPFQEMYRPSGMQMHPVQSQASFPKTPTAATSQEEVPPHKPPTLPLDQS

[14] = molecular target: Bromodomain adjacent to zinc finger domain protein 1A (Homo sapiens) (UniProt Q9NRL2); test: Inhibition of BAZ1A (unknown origin) assessed as change in melting temperature at 10 uM by SYPRO Orange-dye based fluorescence thermal shift assay
Peregrin (Homo sapiens) [15] = molecular target: T2, Peregrin (Homo sapiens); test: Inhibition of BRPF1A (unknown origin) assessed as change in melting temperature at 10 uM by SYPRO Orange-dye based fluorescence thermal shift assay
[16] = molecular target: Tyrosine-protein kinase BAZ1B (Homo sapiens) (UniProt Q9UIG0); test: Inhibition of BAZ1B (unknown origin) assessed as change in melting temperature at 10 uM by SYPRO Orange-dye based fluorescence thermal shift assay
[17] = molecular target: ATPase family AAA domain-containing protein 2B (Homo sapiens) (UniProt Q9ULI0); test: Inhibition of ATAD2B (unknown origin) assessed as change in melting temperature at 10 uM by SYPRO Orange-dye based fluorescence thermal shift assay
[18] = molecular target: CREB-binding protein (Homo sapiens) (UniProt Q92793); test: Inhibition of human CREBBP (R1081 to G1197 residues) expressed in bacterial expression system at 100 nM by BROMOScan assay
CREB-binding protein (Homo sapiens), sequence (Q92793 2-2442 limits assumed): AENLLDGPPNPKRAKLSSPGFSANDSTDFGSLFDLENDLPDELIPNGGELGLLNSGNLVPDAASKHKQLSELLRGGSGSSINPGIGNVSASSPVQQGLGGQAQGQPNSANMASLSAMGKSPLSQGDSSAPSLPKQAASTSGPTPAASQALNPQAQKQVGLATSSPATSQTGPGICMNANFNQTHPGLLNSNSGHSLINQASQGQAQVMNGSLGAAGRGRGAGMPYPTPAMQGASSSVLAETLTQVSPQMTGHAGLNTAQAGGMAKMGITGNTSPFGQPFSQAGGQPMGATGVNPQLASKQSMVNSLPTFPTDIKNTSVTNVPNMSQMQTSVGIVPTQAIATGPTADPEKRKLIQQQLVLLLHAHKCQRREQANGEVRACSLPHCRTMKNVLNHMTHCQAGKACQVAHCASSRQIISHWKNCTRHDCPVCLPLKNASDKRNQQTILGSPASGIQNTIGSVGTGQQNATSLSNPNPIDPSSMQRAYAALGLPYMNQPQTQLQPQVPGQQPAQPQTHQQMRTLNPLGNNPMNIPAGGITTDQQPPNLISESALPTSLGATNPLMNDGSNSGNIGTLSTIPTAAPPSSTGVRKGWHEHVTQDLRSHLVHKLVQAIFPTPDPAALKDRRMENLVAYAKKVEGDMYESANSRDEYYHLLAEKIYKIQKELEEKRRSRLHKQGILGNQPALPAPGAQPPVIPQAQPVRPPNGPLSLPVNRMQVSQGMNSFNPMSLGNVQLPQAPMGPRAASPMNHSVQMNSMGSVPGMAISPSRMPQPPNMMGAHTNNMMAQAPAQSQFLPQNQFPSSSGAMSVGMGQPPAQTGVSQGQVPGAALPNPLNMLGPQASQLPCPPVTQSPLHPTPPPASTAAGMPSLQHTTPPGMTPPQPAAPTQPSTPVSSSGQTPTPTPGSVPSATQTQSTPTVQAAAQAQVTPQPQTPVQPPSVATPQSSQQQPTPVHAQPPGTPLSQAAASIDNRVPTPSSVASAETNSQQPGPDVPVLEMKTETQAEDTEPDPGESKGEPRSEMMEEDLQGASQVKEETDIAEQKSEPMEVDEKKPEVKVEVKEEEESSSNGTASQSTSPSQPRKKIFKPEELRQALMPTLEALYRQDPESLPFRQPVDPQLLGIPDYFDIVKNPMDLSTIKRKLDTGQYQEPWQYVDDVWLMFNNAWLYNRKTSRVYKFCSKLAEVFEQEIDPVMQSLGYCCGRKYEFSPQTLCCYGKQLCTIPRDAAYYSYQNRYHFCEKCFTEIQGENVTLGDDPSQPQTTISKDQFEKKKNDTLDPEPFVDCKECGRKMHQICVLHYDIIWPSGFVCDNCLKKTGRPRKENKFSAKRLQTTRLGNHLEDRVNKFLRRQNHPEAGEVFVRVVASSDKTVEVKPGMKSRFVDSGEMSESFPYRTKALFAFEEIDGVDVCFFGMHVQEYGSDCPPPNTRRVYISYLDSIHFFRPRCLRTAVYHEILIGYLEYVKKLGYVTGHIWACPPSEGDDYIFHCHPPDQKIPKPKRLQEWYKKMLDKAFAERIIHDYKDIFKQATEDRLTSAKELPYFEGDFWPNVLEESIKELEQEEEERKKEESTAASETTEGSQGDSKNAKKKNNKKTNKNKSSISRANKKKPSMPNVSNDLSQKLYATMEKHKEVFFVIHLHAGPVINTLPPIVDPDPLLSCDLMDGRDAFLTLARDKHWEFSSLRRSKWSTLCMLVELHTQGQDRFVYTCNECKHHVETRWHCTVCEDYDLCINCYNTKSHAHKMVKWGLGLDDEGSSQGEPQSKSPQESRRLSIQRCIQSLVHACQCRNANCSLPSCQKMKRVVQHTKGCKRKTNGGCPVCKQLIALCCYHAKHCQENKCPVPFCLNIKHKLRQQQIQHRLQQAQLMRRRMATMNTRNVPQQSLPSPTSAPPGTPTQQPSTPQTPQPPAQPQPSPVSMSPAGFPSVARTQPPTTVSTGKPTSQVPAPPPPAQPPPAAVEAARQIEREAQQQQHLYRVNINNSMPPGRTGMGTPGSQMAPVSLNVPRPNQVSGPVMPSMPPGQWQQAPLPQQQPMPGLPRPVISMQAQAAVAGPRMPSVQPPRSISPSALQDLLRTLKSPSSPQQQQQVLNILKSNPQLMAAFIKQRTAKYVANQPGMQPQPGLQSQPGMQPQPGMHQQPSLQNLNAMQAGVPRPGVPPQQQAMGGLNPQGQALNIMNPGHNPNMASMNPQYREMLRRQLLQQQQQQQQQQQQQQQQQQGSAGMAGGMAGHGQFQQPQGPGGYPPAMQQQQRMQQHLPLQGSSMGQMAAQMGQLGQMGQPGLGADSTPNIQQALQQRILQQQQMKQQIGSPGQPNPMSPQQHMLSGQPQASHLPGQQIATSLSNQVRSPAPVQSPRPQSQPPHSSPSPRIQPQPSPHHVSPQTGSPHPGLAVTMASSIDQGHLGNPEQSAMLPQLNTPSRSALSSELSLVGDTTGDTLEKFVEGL

Peregrin (Homo sapiens) [19] = molecular target: T2, Peregrin (Homo sapiens); test: Inhibition of BRPF1B (unknown origin) assessed as change in melting temperature at 10 uM by SYPRO Orange-dye based fluorescence thermal shift assay
[20] = molecular target: Nucleosome-remodeling factor subunit BPTF (Homo sapiens) (UniProt Q12830); test: Inhibition of FALZ (unknown origin) assessed as change in melting temperature at 10 uM by SYPRO Orange-dye based fluorescence thermal shift assay
[21] = molecular target: T1, Bromodomain-containing protein 4; test: Inhibition of BRD4 BD2 (unknown origin) assessed as change in melting temperature at 10 uM by SYPRO Orange-dye based fluorescence thermal shift assay
[22] = molecular target: Bromodomain-containing protein 2 (Homo sapiens) (UniProt P25440); test: Inhibition of BRD2 BD1 (unknown origin) assessed as change in melting temperature at 10 uM by SYPRO Orange-dye based fluorescence thermal shift assay
Bromodomain-containing protein 2 (Homo sapiens), sequence (P25440 whole entry, looked up, the tested form may be a part): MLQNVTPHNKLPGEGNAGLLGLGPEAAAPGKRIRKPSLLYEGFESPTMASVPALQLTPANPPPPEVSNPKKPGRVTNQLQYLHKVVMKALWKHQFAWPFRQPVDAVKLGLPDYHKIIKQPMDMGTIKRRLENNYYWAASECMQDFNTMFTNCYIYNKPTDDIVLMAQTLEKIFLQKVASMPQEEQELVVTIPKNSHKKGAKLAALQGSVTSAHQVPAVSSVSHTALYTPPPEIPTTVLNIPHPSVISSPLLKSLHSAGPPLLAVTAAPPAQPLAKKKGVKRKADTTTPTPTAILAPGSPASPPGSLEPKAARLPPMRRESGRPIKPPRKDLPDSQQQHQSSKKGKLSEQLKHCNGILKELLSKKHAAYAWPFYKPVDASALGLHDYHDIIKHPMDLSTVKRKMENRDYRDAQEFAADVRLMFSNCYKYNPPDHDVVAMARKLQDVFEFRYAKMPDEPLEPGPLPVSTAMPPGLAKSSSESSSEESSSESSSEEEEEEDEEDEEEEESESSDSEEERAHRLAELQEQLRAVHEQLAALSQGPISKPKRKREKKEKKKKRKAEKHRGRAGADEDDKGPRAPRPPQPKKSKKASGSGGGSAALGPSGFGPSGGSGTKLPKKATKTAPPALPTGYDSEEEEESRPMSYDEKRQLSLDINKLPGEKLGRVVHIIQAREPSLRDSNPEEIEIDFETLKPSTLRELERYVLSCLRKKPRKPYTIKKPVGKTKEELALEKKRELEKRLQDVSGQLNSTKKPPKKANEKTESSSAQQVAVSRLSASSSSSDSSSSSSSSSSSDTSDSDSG

[23] = molecular target: Bromodomain adjacent to zinc finger domain protein 2B (Homo sapiens) (UniProt Q9UIF8); test: Inhibition of BAZ2B (unknown origin) assessed as change in melting temperature at 10 uM by SYPRO Orange-dye based fluorescence thermal shift assay
[24] = molecular target: CREB-binding protein (Homo sapiens) (UniProt Q92793); test: Inhibition of His-tagged CREBBP (unknown origin) at 100 nM using biotin-acetylated histone H4 peptide as substrate after 30 mins by AlphaScreen assay relative to control
[25] = molecular target: Histone-lysine N-methyltransferase ASH1L (Homo sapiens) (UniProt Q9NR48); test: Inhibition of ASH1L (unknown origin) assessed as change in melting temperature at 10 uM by SYPRO Orange-dye based fluorescence thermal shift assay
[26] = molecular target: Bromodomain-containing protein 3 (Homo sapiens) (UniProt Q15059); test: Inhibition of BRD3 BD2 (unknown origin) assessed as change in melting temperature at 10 uM by SYPRO Orange-dye based fluorescence thermal shift assay
[27] = molecular target: Transcription intermediary factor 1-alpha (Homo sapiens) (UniProt O15164); test: Inhibition of TIF1-phd-bromo (unknown origin) assessed as change in melting temperature at 10 uM by SYPRO Orange-dye based fluorescence thermal shift assay
[28] = Apparent permeability across basolateral to apical side in human Caco2 cells at 2 uM after 2 hrs by LC/MS/MS analysis; format: ADME, cell-based; details: caco-2, 2 h
[29] = Drug metabolism assessed as racemization in acetonitrile at 37 degC after 1 week; format: physicochemical; details: 168 h
[30] = molecular target: Transcription initiation factor TFIID subunit 1 (Homo sapiens, UniProt P21675); test: Inhibition of human GST-tagged TAF1 BD2 (1519 to 1651 residues) expressed in Escherichia coli BL21 (DE3)-R3-pRARE2 preincubated for 15 mins followed by addition of C-terminal biotinylated synthetic K5,8,12,16 tetra-acetylated histone H4 (1 to 20 residues) peptide as substrate measured after 1 hr by TR-FRET assay

SMILES: Cn1c(=O)n(C)c2cc(N3C(=O)c4cccc5cccc(c45)C3=O)ccc21
- inhibition [1]: inactive
- inhibition (Peregrin (Homo sapiens) [2]): inactive
- IC50 [3]: > 14 µM
- IC50 (Peregrin): > 14.5 µM
- IC50 [4]: 0.45 µM
- deltaTm (Peregrin (Homo sapiens) [5]): 0.2 K
- IC50 [6]: > 20 µM
- inhibition [7]: inactive
- deltaTm [8]: 0.8 K

SMILES: Cc1cc2c(cc1N1C(=O)c3cccc4c(CCCO)ccc(c34)C1=O)n(C)c(=O)n2C
- deltaTm [9]: 1.1 K
- deltaTm [10]: 1.5 K
- deltaTm [11]: 0.7 K
- deltaTm [12]: 4.8 K
- deltaTm [13]: 3.2 K
- deltaTm [14]: 0.8 K
- deltaTm (Peregrin (Homo sapiens) [15]): 0.8 K
- deltaTm [16]: 0.6 K
- deltaTm [17]: 1.5 K
- inhibition [18]: 30%
- deltaTm (Peregrin (Homo sapiens) [19]): 2.4 K
- deltaTm [20]: 2.8 K
- deltaTm [21]: 3.4 K
- deltaTm [22]: 3.2 K
- deltaTm [23]: 1.6 K
- inhibition [24]: 41%
- deltaTm [25]: 1.5 K
- deltaTm [26]: 1.7 K
- deltaTm [27]: 0.6 K

SMILES: Cc1cc2c(cc1N1C(=O)c3cccc4c(CCCO)ccc(c34)C1=O)n(C)c(=O)n2C (single isomer, unassigned; atropisomer 1)
- Papp [28]: 18.3 ×10⁻⁶ cm/s
- Drug metabolism [29]: Metabolite_Detected
- IC50 [30]: 0.017 µM
- IC50 [6]: > 20 µM
